The values that follow are results of earlier work, collected in patent US5202456A, “Compounds for inhibition of protein methylation” (The President and Fellows of Harvard College, priority 1991, dated 1993).

Data set [1] relates to cellular synthesis of mevalonic acid. To be noted: in words; cited from earlier work.
The next data set concerns ras proteins. To be noted: Hancock et al., 1989; cited from earlier work.
Another data set concerns cell growth. To be noted: Maltese et al., 1985; cited from earlier work.

Consider `CC[C@H](C)C(=O)O[C@H]1C[C@@H](C)C=C2C=C[C@H](C)[C@H](CC[C@@H]3C[C@@H](O)CC(=O)O3)[C@H]21` [Mevinolin], for which the “cellular synthesis of mevalonic acid” value in data set [1] is reported as “inhibits”. Besides, in the data set with ras proteins, the “post-translational processing of ras proteins” value is listed as “affects” and the ras membrane localization result is reported as “interferes”. In addition, the cell growth block result with cell growth is “blocked in cell growth in the G1 phase and the G2/M phase”.
